From patent US20020183365A1, “Method for treating fibrotic diseases or other indications IIIC” (priority 2000, published 2002)
Counter-ions that a name gives are not always drawn.

Experiments:
[1] = series exploring certain imidazolium compounds; cited from earlier work
[2] = test system: Rats; experiment: Rat myocardial infarct model (coronary artery ligation), histological examination of hearts; format: in vivo; settings: daily intraperitoneal 10 mg/kg for 30 days before and 14 days after ligation; placebo 0.16±0.04 g; p=0.04
Procedure: Rats received a daily intraperitoneal dose of 10 mg/kg 3-[2-phenyl-2-oxoethyl]-4,5-dimethyl-thiazolium salt (compound A) (n=14) or placebo (n=15) for 30 days. The animals then underwent a thoracotomy and the left anterior descending coronary artery ligated. The chest was then closed and the animals allowed to recover for 14 days while continuing to be treated with compound A or placebo. The animals were then sacrificed and the hearts removed for histological examination. The weight of the infarcted tissue was 0.16±0.04 g for the placebo treated animals compared to 0.11±0.05 g for the compound A treated animals (p=0.04).

[3] = test system: collagen in cardiovascular tissues; experiment: Mass of collagen in cardiovascular tissues after treatment; settings: in vivo
Source text: (§1) Cardiovascular risk correlates more closely with the systolic and the pulse pressure than with the diastolic pressure. In diabetic patients, the cardiovascular risk profile of diabetic patients is strongly correlated to duration of diabetes, glycemic control and blood pressure. Structural matrix proteins contribute to the function of vessels and the heart, and changes in the physical behavior of cardiovascular walls are believed to be important determinants of circulatory function. In elderly individuals, the loss of compliance in the aorta leads to isolated systolic hypertension, which in turn expands the arterial wall and thereby diminishes the dynamic range of elasticity.

[4] = test system: elderly patients with pulse pressures greater than 60 mm Hg; experiment: Phase IIa clinical trial; format: in vivo, human
Source text: When the heart pumps blood into the vascular system, the ability of the arteries to expand helps to push blood through the body. When arteries become stiff, as they do in the natural process of aging, the ability of the arteries to expand is diminished and also has consequences for the heart. The heart has to work harder to pump the blood into the stiff arteries, and eventually hypertrophies (enlarges in size) to accomplish this. A hypertrophied heart is an inefficient pump, and is one of the disorders that leads to congestive heart failure. […] The potential clinical benefit of this is to lessen the effort that the heart must expend to push blood throughout the body. The effect is also believed to contribute to preventing hypertrophy and subsequent inefficiency of the heart, which inefficiency would contribute to congestive heart failure.
Atherosclerosis is a disease that involves deposition of blood lipids in plaque in the arteries throughout the body. In coronary arteries, accumulation of plaque progressively leads to reduced coronary flow, with occlusion of the arteries causing focal death of cardiac tissue (myocardial infarction, heart attack). If the amount of tissue that dies is large enough, death ensures. […] Reducing local deposits of plaque should eventually lessen the risk of myocardial infarction and death due to heart attacks.
Pulse pressure is the difference between systolic and diastolic blood pressure. In a young human, systolic pressure is typically 120 mm Hg and diastolic pressure is 80 mm Hg, resulting in a pulse pressure of 40 mm Hg. With age, in many individuals pulse pressure increases, largely due to the increase in systolic pressure that results from stiff vessel disease. In individuals with pulse pressure greater than 60 mm Hg there is an increased risk of death from cardiovascular morbidities. […] This decrease in pulse pressure was believed to be due primarily to the effect of the agent on lowering the systolic blood pressure.

[5] = test system: rodents, canines and primates; experiment: In vivo studies of vascular stiffening
Source text: as §1

[6] = test system: TGFbeta; experiment: In situ hybridization studies, TGFbeta
Source text: as §1

[7] = test system: dog model for diabetes; experiment: Dog model for diabetes, ventricular elasticity; format: in vivo
Source text: as §1

[8] = test system: Type IV collagen; experiment: In situ hybridization studies, Type IV collagen
Source text: as §1

Row | SMILES | glucose lowering effect [1] | weight of the infarcted tissue [2] | mass of collagen in cardiovascular tissues [3] | stiffness of arteries, as measured by the ratio of stroke volume (ml) to pulse pressure (mm Hg) ([4]; Phase IIa clinical trial) | amount of circulating triglycerides (lipids) ([4]; Phase IIa trial) | pulse pressure ([4]; Phase IIa trial, elderly patients with pulse pressures greater than 60 mm Hg, statistically significant) | vascular stiffening [5] | expression of TGFbeta [6] | end diastolic pressure, indicator of ventricular elasticity [7] | end diastolic volume, indicator of ventricular elasticity [7] | expression of Type IV collagen [8]
1 | Cc1ccc(C(=O)C[n+]2ccccc2)cc1.[Cl-] [1-[2-(4-methylphenyl)-2-oxoethyl]-pyridinium chloride] | inactive |  |  |  |  |  |  |  |  |  | 
2 | Cc1sc[n+](CC(=O)c2ccccc2)c1C [compound A, 3-[2-phenyl-2-oxoethyl]-4,5-dimethyl-thiazolium salt] |  | 0.11 ± 0.05 g | reduction in the mass of collagen | showed an ability to reverse the stiffness of arteries | increased the amount of circulating triglycerides | reduced pulse pressure | substantially ameliorating vascular stiffening | reduces the expression | returned to a value at about the mid-point between the disease impaired value and the value for control dogs | returned to a value at about the mid-point between the disease impaired value and the value for control dogs | reduces the expression
